Active and inactive are the calls of the source. The calls are words filed in the database; no cut-off is given here. *1 amine or outer side, *2 acyl side, *3 side chain or, on linkers, in order; H or OH if unused. Where a SMILES comes first, the peptide text is derived from it. Side-chain parts run from the residue outwards. [ ]: non-standard residue; d: D form. The star is where a group is joined. Tos = Cc1ccc(S(=O)(=O)*)cc1; NMeA = CN[C@@H](C)C(=O)O; CO = O=C([*:1])[*:2]; Sar = CNCC(=O)O

Assay type in all cases: cell-based
Assay [1] concerns the target ITGB1-ITGA9 complex (Homo sapiens) (UniProt P05556+Q13797). The experiment in a line: Antagonist activity against integrin alpha9beta1 (unknown origin) expressed in SW480 cells assessed as inhibition of integrin alpha9-dependent cell adhesion to tenascin by binding saturation assay.
Assay [2] deals with SW480. Kind of assay: Selectivity for integrin alpha9beta1 (unknown origin) expressed in SW480 cells over integrin alpha5beta1 (unknown origin). Conditions: Homo sapiens.
Assay [3] addresses Integrin alpha-4/beta-1 (Homo sapiens) (UniProt P05556+P13612). Kind of assay: Inhibition of C-terminal human lgG1 heavy chain constant region tagged recombinant soluble VCAM-1 binding to integrin alpha4beta1 in human Jurkat cells incubated for 30 mins by FACS based 15/7 antibody assay.
Assay [4] relates to SW480. Kind of assay: Selectivity for integrin alpha9beta1 (unknown origin) expressed in SW480 cells over integrin alpha4beta7 (unknown origin). Conditions: Homo sapiens.

On to `Cc1ccc(S(=O)(=O)N2CS(=O)(=O)C(C)(C)[C@@H]2C(=O)N[C@@H](Cc2ccc(OC(=O)N(C)C)cc2)C(=O)O)cc1`, for which the inhibition result in assay [1] and in assay [3] was “Active” each time. In addition, the Selectivity ratio in the assay on SW480 [2] and in the assay on SW480 [4] was 100 each time.
For `Cc1ccc(S(=O)(=O)N(C)CC(=O)N[C@@H](Cc2ccc(OC(=O)N(C)C)cc2)C(=O)O)cc1` (Tos-[Sar]-Tyr([CO-NMe2])-OH), the inhibition entry in assay [1] and in assay [3] was “Active” throughout. For the same molecule, the Selectivity ratio in the assay with SW480 [2] and in the assay on SW480 [4] was 100 throughout.
Turning to `Cc1ccc(S(=O)(=O)N2CCC[C@H]2C(=O)N[C@@H](Cc2ccc(OC(=O)N3CCN(C)CC3)cc2)C(=O)O)cc1`, the inhibition entry in assay [1] and in assay [3] was “Active” in each case. Further, the Selectivity ratio in the assay on SW480 [2] and in the assay on SW480 [4] was 100 in each case.
On to `Cc1ccc(S(=O)(=O)N2CCC[C@H]2C(=O)N[C@@H](Cc2ccc(OC(=O)N(C)C)cc2)C(=O)O)cc1` (Tos-Pro-Tyr([CO-NMe2])-OH), for which the inhibition result in assay [1] and in assay [3] was “Active” in each case. For the same molecule, the Selectivity ratio in the assay on SW480 [2] and with SW480 [4] was 100 throughout.
`Cc1ccc(S(=O)(=O)N(C)[C@@H](C)C(=O)N[C@@H](Cc2ccc(OC(=O)N(C)C)cc2)C(=O)O)cc1` (Tos-[NMeA]-Tyr([CO-NMe2])-OH): the inhibition entry in assay [1] and in assay [3] was “Active” in each case. Also, the Selectivity ratio in the assay with SW480 [2] and with SW480 [4] was 100 each time.
As for `Cc1ccc(S(=O)(=O)N2CCS(=O)(=O)C[C@@H]2C(=O)N[C@@H](Cc2ccc(OC(=O)N(C)C)cc2)C(=O)O)cc1`, the inhibition entry in assay [1] and in assay [3] was “Active” each time. Also, the Selectivity ratio in the assay on SW480 [2] and in the assay with SW480 [4] was 100 each time.
`CN(C)C(=O)Oc1ccc(C[C@H](NC(=O)[C@@H]2CCCN2S(=O)(=O)c2cnn(C)c2)C(=O)O)cc1`: the inhibition entry in assay [1] and in assay [3] was “Active” throughout. Moreover, the Selectivity ratio with SW480 [2] and in the assay with SW480 [4] was 100 in each case.
In the case of `Cc1ccc(S(=O)(=O)N2CCC[C@H]2C(=O)N[C@@H](Cc2ccc(OC(=O)N3CCNCC3)cc2)C(=O)O)cc1`, the inhibition result in assay [1] and in assay [3] was “Active” each time. Also, the Selectivity ratio in the assay with SW480 [2] and in the assay with SW480 [4] was 100 each time.
With `Cc1ccc(S(=O)(=O)N2CS(=O)(=O)C(C)(C)[C@@H]2C(=O)N[C@@H](Cc2ccc(OCCCN(C)C)cc2)C(=O)O)cc1`, the inhibition result in assay [1] and in assay [3] was “Active” throughout. Also, the Selectivity ratio in the assay on SW480 [2] and in the assay on SW480 [4] was 100 each time.

The record behind these values is ChEMBL document CHEMBL3881521, “Alpha-9 integrin antagonists and anti-inflammatory compositions therof” (2003).
